The values below come from patent US11952365B2, “Anti-viral compounds” (Aligos Therapeutics, Inc., priority 2020, dated 2024).

Where two headings read alike, the source gives them in different places.

For orientation: IC50 means the concentration at which inhibition is half-maximal. For orientation: EC50 means the midpoint of the concentration-response curve.

The target in data set [1] is HRV3C (Human rhinovirus 14, UniProt P03303). In words: HRV3C protease assay (duplex, SAMDI-MS). Conditions: 30 mins preincubation. The format is biochemical, HRV. In short, it runs like this:
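Steps: enzymes (HRV3C plus 3CLpro) and compound preincubated 30 min; two peptide substrates added; 30 min reaction at ambient temperature; formic acid quench; SAMDI capture and reflector-positive TOF analysis. Product quantified against internal standard peptides. IC50 by four-parameter equation.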

Data set [2] concerns human beta-coronavirus OC43. Description: microbe, parasite or virus in culture. Conditions: Betacoronavirus 1, OC43, HeLa, 144 h. The format is cell-based.
Data set [3] is described as follows: Cytotoxicity plates without OC43 virus (cell-titer-glo). The format is cell-based, human. The following applies: human; HeLa cells without OC43 virus, class symbols. In a few lines:
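HeLa cells seeded overnight, then treated with serially diluted compounds in 2% FBS EMEM, uninfected, in parallel with the OC43 antiviral plates. Incubated 6 days at 33 °C; viability read by CellTiter-Glo luminescence.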

For data set [4], the system named is SARS-CoV-2-GHB-03021/2020. Description: SARS-CoV-2 Infection Model in Huh7 Cells. The format is cell-based. Conditions: Severe acute respiratory syndrome coronavirus 2, Huh-7, 96 h, SARS-CoV-2, day 4 p.i., MTS.
Data set [5] has as its system SARS-CoV-2-GHB-03021/2020. Description: microbe, parasite or virus in culture. The format is cell-based. The following applies: Severe acute respiratory syndrome coronavirus 2, Vero C1008, 96 h; read-out: VeroE6 + CP (EC50).
For data set [6], the target named is T1, human cathepsin L (Homo sapiens, UniProt P07711).
T1 construct: purchased R&D Systems
Description: cathepsin L assay. Format: biochemical. The following applies: 10 pM human cathepsin L, Z-FR-AMC 2 μM, class symbols. In a few lines: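 Human cathepsin L at 10 pM was preincubated 30 min with compound, then reaction started with Z-FR-AMC (2 μM final). Fluorescence (355/460 nm) read every 2 min for 30 min; IC50 from four-parameter curve fit.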

Data set [7] is described as follows: in vitro. The following applies: human.
A short description of data set [8]: in vitro. The following applies: African green monkey, VeroE6 + CP (CC50), Vero E6-eGFP cells with CP-100356, absence of virus, MTS.
Data set [9] concerns the target 3CLpro (Severe acute respiratory syndrome coronavirus 2, UniProt P0DTD1). In words: SARS-CoV-2 3CLpro protease assay (duplex, SAMDI-MS). The format is biochemical. Details: For the duplex assay, 3CLpro and HRV3C was added. Conditions: 30 mins preincubation, class symbols.
The mark [10] stands for this setting: HRV3C, class symbols, read-out: HRV IC50.
[11] abbreviates: 3CLpro, read-out: SARS-Cov-2 IC50.
Setting [12] is: OC43 in HeLa cells, 6 days at 33° C., class symbols, read-out: EC50.
Setting [13] is: HRV3C, bound, read-out: HRV IC50.

Turning to `C=CC12CN(C(=O)c3cc4c(OC)cccc4[nH]3)C(C(=O)N[C@@H](C[C@@H]3CCNC3=O)C(=O)C(=O)NC3CC3)(C1)C2` [Compound 98], the IC50 in [1] (setting [10]) was 20 to 200 nM; in [6] it was ≥ 10 µM; in [9] (setting [11]), 200 to 2000 nM. Also, the EC50 in data set [2] (OC43 in HeLa cells, 6 days at 33° C., bound, read-out: EC50) was > 10000 nM; in data set [4] (numeric bounds) it was > 50000 nM; in data set [5], 10000 to 100000 nM. For the same molecule, the CC50 at 6 days in data set [3] is > 10 µM. Also, the CC50 in [7] is > 50 µM; in data set [8] (class symbols), > 10 µM.

Consider `COc1ccc(F)c2[nH]c(C(=O)N3C[C@@H]4CCC[C@@H]4[C@H]3C(=O)N[C@@H](C[C@@H]3CCNC3=O)C(=O)CO)cc12` [Compound 65, (1S,3aR,6aS)-2-(7-fluoro-4-methoxy-1H-indole-2-carbonyl)-N-[(2S)-4-hydroxy-3-oxo-1-[(3S)-2-oxopyrrolidin-3-yl]butan-2-yl]-hexahydro-1H-cyclopenta[c]pyrrole-1-carboxamide], for which the half-maximal inhibitory concentration (IC50) in data set [1] (setting [10]) was 200 to 2000 nM; in [6], ≥ 10 µM; in data set [9] (setting [11]), < 20 nM. The 50% effective concentration (EC50) in data set [2] (setting [12]) was 100 to 1000 nM; in data set [4] (class symbols), < 1000 nM; in [5] it was < 1000 nM. For the same molecule, the CC50 at 6 days in data set [3] was > 10 µM. Further, the CC50 in data set [7] was > 100 µM; in [8] (class symbols), > 10 µM.

In the case of `O=C1NCC[C@H]1C[C@H](NC(=O)[C@@H]1[C@H]2CCC[C@H]2CN1C(=O)c1nc2c(Cl)ccc(Cl)c2[nH]1)C(=O)CO` [Compound 139, (1S,3aR,6aS)-2-(4,7-dichloro-1H-1,3-benzodiazole-2-carbonyl)-N-[(2S)-4-hydroxy-3-oxo-1-[(3S)-2-oxopyrrolidin-3-yl]butan-2-yl]-hexahydro-1H-cyclopenta[c]pyrrole-1-carboxamide], the IC50 in [1] (HRV IC50, HRV3C, bound) was > 10000 nM; in data set [6] it was ≥ 10 µM; in data set [9] (setting [11]), < 20 nM. Further, the EC50 in data set [2] is 100 to 1000 nM; in data set [4] (class symbols) it was < 1000 nM; in data set [5], < 1000 nM. In addition, in data set [3], the CC50 at 6 days is > 10 µM. The CC50 in [7] and in [8] (numeric bounds) was > 50 µM each time.

Regarding `O=C(NC1CC1)C(=O)[C@H](C[C@@H]1CCNC1=O)NC(=O)[C@@H]1[C@H]2CCC[C@H]2CN1C(=O)c1cc2c(Cl)cc(Cl)cc2[nH]1` [Compound 148], the half-inhibitory concentration (IC50) is 200 to 2000 nM in data set [1] (setting [10]), ≥ 10 µM in [6] and 20 to 200 nM in data set [9] (setting [11]). Moreover, the 50% effective concentration (EC50) is 100 to 1000 nM in [2] (setting [12]), < 1000 nM in data set [4] (class symbols) and < 1000 nM in data set [5]. Besides, the CC50 at 6 days in data set [3] was > 10 µM. Moreover, the CC50 is > 10 µM in data set [7] and > 50 µM in data set [8] (numeric bounds).

For the molecule `O=C1NCC[C@H]1C[C@H](NC(=O)[C@@H]1[C@H]2CCC[C@H]2CN1C(=O)c1cc2c(Cl)ccc(Oc3ccccc3)c2[nH]1)C(=O)CO` [Compound 137, (1S,3aR,6aS)-2-(4-chloro-7-phenoxy-1H-indole-2-carbonyl)-N-[(2S)-4-hydroxy-3-oxo-1-[(3S)-2-oxopyrrolidin-3-yl]butan-2-yl]-hexahydro-1H-cyclopenta[c]pyrrole-1-carboxamide], the IC50 is > 10000 nM in data set [1] (HRV IC50, HRV3C, bound); ≥ 10 µM in data set [6]; 20 to 200 nM in data set [9] (SARS-Cov-2 IC50, 3CLpro). Besides, the 50% effective concentration (EC50) was < 100 nM in data set [2] (setting [12]), < 1000 nM in data set [4] (class symbols) and 1000 to 10000 nM in [5]. Also, in data set [3], the CC50 at 6 days was > 10 µM. Besides, the CC50 in [7] was > 10 µM; in data set [8] (numeric bounds), > 50 µM.

`COc1cccc2[nH]c(C(=O)N3C[C@@H]4CCCC[C@@H]4[C@H]3C(=O)N[C@@H](C[C@@H]3CCCNC3=O)C(=O)COCc3ccccc3)cc12` (single isomer, unassigned) [Compound 59A_1]: the half-maximal inhibitory concentration (IC50) in data set [1] (setting [10]) is 2000 to 20000 nM; in [6] it was ≥ 10 µM; in data set [9] (setting [11]) it was 20 to 200 nM. For the same molecule, the EC50 is 100 to 1000 nM in [2] (setting [12]), < 1000 nM in [4] (class symbols) and < 1000 nM in [5]. The CC50 at 6 days in data set [3] was > 10 µM. Besides, the CC50 in data set [7] and in data set [8] (class symbols) was > 10 µM throughout.

With `O=C1NCC[C@H]1C[C@H](NC(=O)[C@@H]1[C@H]2CCC[C@H]2CN1C(=O)c1cc2c(Cl)c(F)c(Cl)cc2[nH]1)C(=O)CO` [Compound 121, (1S,3aR,6aS)-2-(4,6-dichloro-5-fluoro-1H-indole-2-carbonyl)-N—((S)-4-hydroxy-3-oxo-1-((S)-2-oxopyrrolidin-3-yl)butan-2-yl)octahydrocyclopenta[c]pyrrole-1-carboxamide], the 50% inhibitory concentration (IC50) in data set [1] (setting [13]) was > 10000 nM; in data set [6] it was ≥ 10 µM; in [9] (setting [11]) it was 20 to 200 nM. Besides, the EC50 was < 100 nM in [2] (setting [12]), < 1000 nM in data set [4] (class symbols) and 1000 to 10000 nM in [5]. Besides, in data set [3], the CC50 at 6 days was > 10 µM. The CC50 in data set [7] and in data set [8] (numeric bounds) was > 50 µM each time.

With `COc1cccc2[nH]c(C(=O)N3C[C@@H]4CCC[C@@H]4[C@H]3C(=O)N[C@@H](C[C@@H]3CCNC3=O)C(=O)C(=O)NCCOCc3ccccc3)cc12` [Compound 101], the figures for the concentration for half-maximal inhibition (IC50) in data set [1] (setting [10]), in [6] and in [9] (setting [11]) were 200 to 2000 nM, ≥ 10 µM and < 20 nM, respectively. In addition, the EC50 in [2] (setting [12]) lay in the range of 100 to 1000 nM; in data set [4] (class symbols), 1000 to 10000 nM; in data set [5], 1000 to 10000 nM. In addition, the CC50 at 6 days in [3] was > 10 µM. Further, the figures for the CC50 in [7] and in data set [8] (class symbols) were > 50 µM and > 10 µM, respectively.

As for `COc1cccc2[nH]c(C(=O)N3C[C@@H]4CCC[C@@H]4[C@H]3C(=O)NC(C[C@@H]3CCCNC3=O)C(=O)C(=O)NC3CC3)cc12` (stereo partly drawn) [Compound 55, 3-{[(1S,3aR,6aS)-2-(4-methoxy-1H-indole-2-carbonyl)-hexahydro-1H-cyclopenta[c]pyrrol-1-yl]formamido}-N-cyclopropyl-2-oxo-4-[(3S)-2-oxopiperidin-3-yl]butanamide], the results for the IC50 in [1] (setting [10]), in data set [6] and in [9] (setting [11]) were 20 to 200 nM, ≥ 10 µM and < 20 nM, respectively. In addition, the EC50 in data set [2] (setting [12]) lay within 100 to 1000 nM; in data set [4] (class symbols), 1000 to 10000 nM; in data set [5] it was 1000 to 10000 nM. Besides, the CC50 at 6 days in data set [3] was > 10 µM. For the same molecule, the CC50 in data set [7] and in [8] (numeric bounds) was > 100 µM throughout.

As to `CC(C)(C)C(=O)OCC(=O)[C@H](C[C@@H]1CCNC1=O)NC(=O)[C@@H]1[C@H]2CCC[C@H]2CN1C(=O)c1cc2c(Cl)cc(Cl)cc2[nH]1` [Compound 132, (3S)-3-{[(1S,3aR,6aS)-2-(4,6-dichloro-1H-indole-2-carbonyl)-hexahydro-1H-cyclopenta[c]pyrrol-1-yl]formamido}-2-oxo-4-[(3S)-2-oxopyrrolidin-3-yl]butyl 2,2-dimethylpropanoate], the concentration for half-maximal inhibition (IC50) in [1] (setting [13]) was > 10000 nM; in data set [6], ≥ 10 µM; in data set [9] (setting [11]) it was 200 to 2000 nM. For the same molecule, the concentration for a half-maximal effect (EC50) was < 100 nM in data set [2] (setting [12]), < 1000 nM in [4] (class symbols) and < 1000 nM in [5]. In data set [3], this molecule yielded a CC50 at 6 days of 1 to 10 µM. Further, the CC50 in data set [7] and in data set [8] (class symbols) was > 10 µM in each case.

Turning to `O=C(NCCOC1CCCC1)C(=O)[C@H](C[C@@H]1CCNC1=O)NC(=O)[C@@H]1[C@H]2CCC[C@H]2CN1C(=O)c1cc2c(Cl)cc(Cl)cc2[nH]1` [Compound 166], the values for the IC50 in [1] (setting [13]), in data set [6] and in data set [9] (setting [11]) were > 10000 nM, 1 to 10 µM and < 20 nM, respectively. In addition, the concentration for a half-maximal effect (EC50) in data set [2] (setting [12]) was 100 to 1000 nM; in data set [4] (class symbols) it was < 1000 nM; in data set [5], < 1000 nM. In [3], the CC50 at 6 days is > 10 µM. Further, the CC50 is 1 to 10 µM in [7] and > 10 µM in data set [8] (class symbols).

For the molecule `COc1cccc2[nH]c(C(=O)N3C[C@@H]4CCC[C@@H]4[C@H]3C(=O)NC(CN3CCCC3=O)C(=O)C(=O)NC3CC3)cc12` (single isomer, unassigned) [Compound 113A, (1S,3aR,6aS)—N—((S*)-4-(cyclopropylamino)-3,4-dioxo-1-(2-oxopyrrolidin-1-yl)butan-2-yl)-2-(4-methoxy-1H-indole-2-carbonyl)octahydrocyclopenta[c]pyrrole-1-carboxamide], the half-inhibitory concentration (IC50) in data set [1] (setting [13]) was > 10000 nM; in [6], ≥ 10 µM; in data set [9] (setting [11]), 200 to 2000 nM. The EC50 in [2] (setting [12]) fell in the range of 1000 to 10000 nM; in [4] (class symbols), 10000 to 100000 nM; in [5] it was 10000 to 100000 nM. Moreover, the CC50 at 6 days in [3] was > 10 µM. Besides, the CC50 in data set [7] and in data set [8] (numeric bounds) was > 50 µM each time.
